Laboratory results published in patent US20240158394A1, “NEK7 INHIBITORS” (Halia Therapeutics, Inc., priority 2022, published 2024).

biological target: full-length recombinant human NEK7 (Homo sapiens (Human), UniProt Q8TDX7); test: NEK7 Enzymatic Assay; assay type: biochemical; settings: casein substrate, [33P]-ATP, 2 hours at room temperature
Protocol: Casein substrate (from bovine milk, hydrolyzed and partially dephosphorylated mixture of α, β and κ caseins, obtained from Sigma Aldrich, catalogue #C4765, diluted in distilled water to a final concentration of 1 mg/mL) and full-length recombinant human NEK7 (expressed by baculovirus in Sf9 insect cells using a N-terminal GST tag, obtained from SignalChem, catalogue #N09-10G, 0.1 μg/μL) were mixed in assay buffer (20 mM HEPES pH 7.5, 10 mM MgCl2, 1 mM EGTA, 0.02% Brij35, 0.02 mg/mL BSA, 0.1 mM Na3VO4, 2 mM DTT, 1% DMSO). Compounds of interest (serial 3-fold dilution in DMSO from 10 μM to 0.5 nM) or vehicle (1% DMSO) were dispensed into the kinase reaction mixture by Acoustic technology (Echo550; nanoliter range). After incubation at room temperature for 20 minutes, the kinase reaction was initiated by addition of [^33P]-ATP (specific activity 10 μCi/μL) and the mixture was incubated at room temperature for 2 hours. The reaction was then stopped by spotting the reaction mixture on strips of phosphocellulose P81 paper. Following washing, the radioactivity of the P81 paper was measured and kinase activity data were expressed as the percent remaining kinase activity in test samples compared to vehicle reactions. IC50 values and curve fits were obtained using Prism (GraphPad Software).

Chain of full-length recombinant human NEK7 (Q8TDX7 whole entry): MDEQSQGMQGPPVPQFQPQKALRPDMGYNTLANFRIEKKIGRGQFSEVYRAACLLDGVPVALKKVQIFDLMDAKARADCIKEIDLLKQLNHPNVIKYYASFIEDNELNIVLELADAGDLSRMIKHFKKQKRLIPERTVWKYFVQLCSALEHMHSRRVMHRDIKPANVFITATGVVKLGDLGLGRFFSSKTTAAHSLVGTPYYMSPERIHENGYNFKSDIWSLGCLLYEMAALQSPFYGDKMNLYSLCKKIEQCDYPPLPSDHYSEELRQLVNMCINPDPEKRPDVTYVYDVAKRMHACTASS

| IC50 [nM] | Structure (SMILES) |
| --- | --- |
| < 200 | Nc1ncnc2c1c(-c1ccc(NC(=O)Nc3cc(C4(C(F)(F)F)CCC4)no3)c3nccn13)cn2C1CC1 [Example I-23, 1-(5-(4-amino-7-cyclopropyl-7H-pyrrolo[2,3-d]pyrimidin-5-yl)imidazo[1,2-a]pyridin-8-yl)-3-(3-(1-(trifluoromethyl)-cyclobutyl)isoxazol-5-yl)urea] |
| > 2000 | Cc1cc(NC(=O)Nc2ccc(-c3cn(C4CC4)c4ncnc(N)c34)n3ccnc23)no1 [Example I-24, 1-(5-(4-amino-7-cyclopropyl-7H-pyrrolo[2,3-d]pyrimidin-5-yl)imidazo[1,2-a]pyridin-8-yl)-3-(5-methylisoxazol-3-yl)urea] |
| < 200 | CC(C)(c1cc(NC(=O)Nc2ccc(-c3cn(C4CC4)c4ncnc(N)c34)n3ccnc23)on1)C(F)(F)F [Example I-21, 1-(5-(4-amino-7-cyclopropyl-7H-pyrrolo[2,3-d]pyrimidin-5-yl)imidazo[1,2-a]pyridin-8-yl)-3-(3-(1,1,1-trifluoro-2-methylpropan-2-yl)isoxazol-5-yl)urea] |
| < 200 | Cn1cc(-c2ccc(NC(=O)Nc3cc(C4(C(F)(F)F)CC4)on3)c3nccn23)c2c(N)ncnc21 [Example I-126, 1-(5-(4-amino-7-methyl-7H-pyrrolo[2,3-d]pyrimidin-5-yl)imidazo[1,2-a]pyridin-8-yl)-3-(5-(1-(trifluoromethyl)-cyclopropyl)isoxazol-3-yl)urea] |
| < 200 | CC(C)c1cc(NC(=O)Nc2ccc(-c3cn(C4CC4)c4ncnc(N)c34)n3ccnc23)on1 [Example I-16, 1-(5-(4-amino-7-cyclopropyl-7H-pyrrolo[2,3-d]pyrimidin-5-yl)imidazo[1,2-a]pyridin-8-yl)-3-(3-isopropylisoxazol-5-yl)urea] |
| > 2000 | CC(C)(C)c1cc(NC(=O)Nc2ccc(-c3cn(C4CC4)c4ncnc(N)c34)c3cccnc23)on1 [Example I-2, 1-(5-(4-amino-7-cyclopropyl-7H-pyrrolo[2,3-d]pyrimidin-5-yl)quinolin-8-yl)-3-(3-(tert-butyl)isoxazol-5-yl)urea] |
| < 200 | CC(C)(c1cc(NC(=O)Nc2ccc(-c3cn(C4CC4)c4ncnc(N)c34)n3ccnc23)no1)C(F)(F)F [Example I-31, 1-(5-(4-amino-7-cyclopropyl-7H-pyrrolo[2,3-d]pyrimidin-5-yl)imidazo[1,2-a]pyridin-8-yl)-3-(5-(1,1,1-trifluoro-2-methylpropan-2-yl)isoxazol-3-yl)urea] |
| < 200 | Nc1ncnc2c1c(-c1ccc(NC(=O)Nc3cc(C4(C(F)(F)F)CC4)on3)c3nccn13)cn2C1CCC1 [Example I-84, 1-(5-(4-amino-7-cyclobutyl-7H-pyrrolo[2,3-d]pyrimidin-5-yl)imidazo[1,2-a]pyridin-8-yl)-3-(5-(1-(trifluoromethyl)-cyclopropyl)isoxazol-3-yl)urea] |
| < 200 | CC1(c2cc(NC(=O)Nc3ccc(-c4cn(C5CC5)c5ncnc(N)c45)n4ccnc34)on2)CC1 [Example I-18, 1-(5-(4-amino-7-cyclopropyl-7H-pyrrolo[2,3-d]pyrimidin-5-yl)imidazo[1,2-a]pyridin-8-yl)-3-(3-(1-methylcyclo-propyl)isoxazol-5-yl)urea] |
| < 200 | Nc1ncnc2c1c(-c1ccc(NC(=O)Nc3cc(C4(C(F)(F)F)CC4)on3)c3nccn13)cn2CCO [Example I-85, 1-(5-(4-amino-7-(2-hydroxy-ethyl)-7H-pyrrolo[2,3-d]pyr-imidin-5-yl)imidazo[1,2-a]-pyridin-8-yl)-3-(5-(1-(tri-fluoromethyl)cyclopropyl)-isoxazol-3-yl)urea] |
| 200 to 500 | CCc1cc(NC(=O)Nc2ccc(-c3cn(C4CC4)c4ncnc(N)c34)n3ccnc23)on1 [Example I-15, 1-(5-(4-amino-7-cyclopropyl-7H-pyrrolo[2,3-d]pyrimidin-5-yl)imidazo[1,2-a]pyridin-8-yl)-3-(3-ethylisoxazol-5-yl)-urea] |
| 500 to 2000 | Nc1ncnc2c1c(-c1ccc(NC(=O)Nc3cc(C4(C(F)(F)F)CC4)no3)c3cnccc13)cn2C1CC1 [Example I-7, 1-(5-(4-amino-7-cyclopropyl-7H-pyrrolo[2,3-d]pyrimidin-5-yl)isoquinolin-8-yl)-3-(3-(1-(trifluoromethyl)cyclopropyl)-isoxazol-5-yl)urea] |
| 500 to 2000 | CC(C)(C)c1cc(NC(=O)Nc2ccc(-c3cn(C4CC4)c4ncnc(N)c34)n3ccnc23)n(-c2ccc(Cl)cc2)n1 [Example I-13, 1-(5-(4-amino-7-cyclopropyl-7H-pyrrolo[2,3-d]pyrimidin-5-yl)imidazo[1,2-a]pyridin-8-yl)-3-(3-(tert-butyl)-1-(4-chlorophenyl)-1H-pyrazol-5-yl)urea] |
| < 200 | CC(C)(C)c1cc(NC(=O)Nc2ccc(-c3cn(C4CC4)c4ncnc(N)c34)c3ccncc23)on1 [Example I-5, 1-(5-(4-amino-7-cyclopropyl-7H-pyrrolo[2,3-d]pyrimidin-5-yl)isoquinolin-8-yl)-3-(3-(tert-butyl)isoxazol-5-yl)urea] |

Further lines, the compound ahead of its results:

| Structure (SMILES) | IC50 [nM] |
| --- | --- |
| Nc1ncnc2c1c(-c1ccc(NC(=O)Nc3ccc(CN4CCN(CCO)CC4)c(C(F)(F)F)c3)c3nccn13)cn2C1CC1 [Example I-39, 1-(5-(4-amino-7-cyclopropyl-7H-pyrrolo[2,3-d]pyrimidin-5-yl)imidazo[1,2-a]pyridin-8-yl)-3-(4-((4-(2-hydroxyeth-yl)piperazin-1-yl)methyl)-3-(trifluoromethyl)phenyl)urea] | < 200 |
| CCN1CCC(Oc2ccc(NC(=O)Nc3ccc(-c4cn(C5CC5)c5ncnc(N)c45)c4c3OC(C)(C)C4)cc2C(F)(F)F)CC1 [Example I-123, 1-(4-(4-amino-7-cyclopropyl-7H-pyrrolo[2,3-d]pyrimidin-5-yl)-2,2-dimethyl-2,3-dihydrobenzofuran-7-yl)-3-(4-((1-ethylpiperidin-4-yl)oxy)-3-(trifluoromethyl)phenyl)urea] | > 2000 |
| CN1CCN(Cc2ccc(NC(=O)Nc3ccc(-c4cn(C5CC(O)C5)c5ncnc(N)c45)n4ccnc34)cc2C(F)(F)F)CC1 (stereo not drawn) [Example I-132, 1-(5-(4-amino-7-(3-hydroxy-cyclobutyl)-7H-pyrrolo[2,3-d]pyrimidin-5-yl)imidazo[1,2-a]pyridin-8-yl)-3-(4-((4-meth-ylpiperazin-1-yl)methyl)-3-(trifluoromethyl)phenyl)urea] | < 200 |
| CC1Cc2c(-c3cn(C4CC4)c4ncnc(N)c34)ccc(NC(=O)Nc3cc(C4(C(F)(F)F)CC4)on3)c2O1 (stereo not drawn) [Example I-56, 1-(4-(4-amino-7-cyclopropyl-7H-pyrrolo[2,3-d]pyrimidin-5-yl)-2-methyl-2,3-dihydro-benzofuran-7-yl)-3-(5-(1-(trifluoromethyl)cyclopropyl)-isoxazol-3-yl)urea] | 500 to 2000 |
| CN1CCN(Cc2ccc(NC(=O)Nc3ccc(-c4cn(C5CCNCC5)c5ncnc(N)c45)n4ccnc34)cc2C(F)(F)F)CC1 [Example I-133, 1-(5-(4-amino-7-(piperidin-4-yl)-7H-pyrrolo[2,3-d]pyr-imidin-5-yl)imidazo[1,2-a]-pyridin-8-yl)-3-(4-((4-methyl-piperazin-1-yl)methyl)-3-(trifluoromethyl)phenyl)urea] | < 200 |
| CN1CCN(Cc2ccc(NC(=O)Nc3ccc(-c4cn(C5CCC5)c5ncnc(N)c45)n4ccnc34)cc2C(F)(F)F)CC1 [Example I-129, 1-(5-(4-amino-7-cyclobutyl-7H-pyrrolo[2,3-d]pyrimidin-5-yl)imidazo[1,2-a]pyridin-8-yl)-3-(4-((4-methylpiperazin-1-yl)methyl)-3-(trifluorometh-yl)phenyl)urea] | < 200 |
| CN1CCN(Cc2ccc(NC(=O)Nc3ccc(-c4cn(CC(C)(C)O)c5ncnc(N)c45)n4ccnc34)cc2C(F)(F)F)CC1 [Example I-131, 1-(5-(4-amino-7-(2-hydroxy-2-methylpropyl)-7H-pyrrolo[2,3-d]pyrimidin-5-yl)imidazo[1,2-a]pyridin-8-yl)-3-(4-((4-meth-ylpiperazin-1-yl)methyl)-3-(trifluoromethyl)phenyl)urea] | < 200 |
| CCN1CCC(Oc2ccc(NC(=O)Nc3ccc(-c4cn(C5CCC5)c5ncnc(N)c45)n4ccnc34)cc2C(F)(F)F)CC1 [Example I-137, 1-(5-(4-amino-7-cyclobutyl-7H-pyrrolo[2,3-d]pyrimidin-5-yl)imidazo[1,2-a]pyridin-8-yl)-3-(4-((1-ethylpiperidin-4-yl)oxy)-3-(trifluoromethyl)-phenyl)urea] | < 200 |
| COCCN1CCN(Cc2ccc(NC(=O)Nc3ccc(-c4cn(C5CC5)c5ncnc(N)c45)n4ccnc34)cc2C(F)(F)F)CC1 [Example I-40, 1-(5-(4-amino-7-cyclopropyl-7H-pyrrolo[2,3-d]pyrimidin-5-yl)imidazo[1,2-a]pyridin-8-yl)-3-(4-((4-(2-methoxyeth-yl)piperazin-1-yl)methyl)-3-(trifluoromethyl)phenyl)urea] | < 200 |
| CN1CCC(Oc2ccc(NC(=O)Nc3ccc(-c4cn(C5CC5)c5ncnc(N)c45)c4ccncc34)cc2C(F)(F)F)CC1 [Example I-10, 1-(5-(4-amino-7-cyclopropyl-7H-pyrrolo[2,3-d]pyrimidin-5-yl)isoquinolin-8-yl)-3-(4-((1-methylpiperidin-4-yl)oxy)-3-(trifluoromethyl)phenyl)urea] | < 200 |
